These results are taken from PubChem BioAssay (NCI).

Test systems include A498 renal; NCI-H522 lung; RPMI-8226 leukemia; SF-268 CNS; SK-OV-3 ovarian; SNB-19 CNS; SR leukemia; SW-620 colon; UACC-257 melanoma; UO-31 renal.
Experiment in all cases: inhibition of tumour cell growth, NCI panel, 48 h

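Each compound was tested at five concentrations against cells in 96-well plates for 48 hours. GI50 is the concentration that inhibits growth by half. TGI marks complete inhibition of growth.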

`Cc1cc2c(SCc3ccccc3Cl)nc(N)nc2nc1C`: the TGI with A498 renal, in the experiment on NCI-H522 lung, in the experiment on RPMI-8226 leukemia, in the experiment on SF-268 CNS, in the experiment on SK-OV-3 ovarian and in the experiment with SNB-19 CNS was above 100 µM throughout. Moreover, the TGI in the experiment on SR leukemia, in the experiment on SW-620 colon, in the experiment on UACC-257 melanoma and in the experiment with UO-31 renal was above 100 µM each time.

On to `COc1cc([C@H]2c3cc(O)c(OC)cc3C[C@]3(O)[C@@H]2CO[C@@H]3O)ccc1O`, for which the TGI in the experiment with A498 renal, in the experiment with NCI-H522 lung, in the experiment on RPMI-8226 leukemia, with SF-268 CNS, in the experiment on SK-OV-3 ovarian and in the experiment on SNB-19 CNS was above 100 µM each time. Moreover, the TGI in the experiment on SR leukemia, in the experiment with SW-620 colon, in the experiment on UACC-257 melanoma and in the experiment on UO-31 renal was above 100 µM throughout.

For `O=C(NCc1cccnc1)c1ccc([N+](=O)[O-])o1`, the GI50 is 3.25 µM with A498 renal; 0.141 µM in the experiment on NCI-H522 lung; 4.72 µM in the experiment with RPMI-8226 leukemia; 4.83 µM in the experiment with SF-268 CNS; 4.13 µM with SK-OV-3 ovarian; 2.89 µM in the experiment with SNB-19 CNS. Besides, the GI50 is 1.24 µM in the experiment on SR leukemia, 1.47 µM in the experiment with SW-620 colon, 1.13 µM with UACC-257 melanoma and 2.83 µM in the experiment on UO-31 renal. Besides, the TGI in the experiment on A498 renal is 9.02 µM; with NCI-H522 lung it was 0.602 µM; in the experiment with RPMI-8226 leukemia, above 32.5 µM; in the experiment with SF-268 CNS it was above 22.1 µM; in the experiment on SK-OV-3 ovarian, 14.2 µM; with SNB-19 CNS, 8.26 µM. Besides, the TGI is above 32.5 µM in the experiment with SR leukemia, 5.58 µM with SW-620 colon, 5.03 µM in the experiment on UACC-257 melanoma and above 14.7 µM in the experiment with UO-31 renal.

As to `CC1=C2[C@@H](c3ccccc3)C3C=CC2(C=C3C(F)(F)F)N(C(=O)NC2CCCCC2)C1=O` (stereo not given in full), the TGI in the experiment on A498 renal is above 100 µM; with SF-268 CNS it was above 100 µM; in the experiment with SK-OV-3 ovarian it was above 100 µM; in the experiment with SNB-19 CNS it was above 100 µM; in the experiment with SR leukemia, 66.8 µM; with SW-620 colon, above 100 µM. In addition, the TGI with UACC-257 melanoma and in the experiment with UO-31 renal was above 100 µM throughout.

For `CCNc1nc(-c2ccc(Cl)c(OC)c2)c(-c2ccnc(NCCNS(=O)(=O)c3ccc(Cl)cc3)n2)s1`, the GI50 in the experiment with A498 renal was 1.5 µM; with NCI-H522 lung, 1.92 µM; in the experiment with RPMI-8226 leukemia, 2.93 µM; in the experiment with SF-268 CNS, 4.03 µM; in the experiment with SK-OV-3 ovarian, 3.66 µM; in the experiment on SNB-19 CNS it was 4.59 µM. Moreover, the GI50 was 2.7 µM with SR leukemia, 4.22 µM in the experiment with SW-620 colon, 3.44 µM in the experiment on UACC-257 melanoma and 2.51 µM with UO-31 renal. Besides, the TGI is 6.52 µM with A498 renal; 4.35 µM in the experiment on NCI-H522 lung; 8.39 µM with RPMI-8226 leukemia; above 100 µM with SF-268 CNS; 55.1 µM in the experiment with SK-OV-3 ovarian; above 100 µM in the experiment with SNB-19 CNS. In addition, the TGI with SR leukemia was 7.51 µM; in the experiment on SW-620 colon it was above 100 µM; in the experiment on UACC-257 melanoma, 49.4 µM; in the experiment on UO-31 renal it was 6.37 µM.

Take `COC(=O)C(NC(=O)c1ccccc1)c1ccc(OC)c(I)c1` (stereo not given): the GI50 in the experiment with A498 renal was above 100 µM; in the experiment with NCI-H522 lung, 43.6 µM; in the experiment with RPMI-8226 leukemia it was 44.2 µM; in the experiment on SF-268 CNS, above 100 µM; in the experiment with SK-OV-3 ovarian, 78.2 µM; in the experiment with SNB-19 CNS, above 100 µM. Moreover, the GI50 was 35.2 µM in the experiment with SR leukemia, above 100 µM with SW-620 colon, 48.3 µM in the experiment with UACC-257 melanoma and 76 µM in the experiment with UO-31 renal. Moreover, the TGI with A498 renal, in the experiment on NCI-H522 lung, with RPMI-8226 leukemia, in the experiment with SF-268 CNS, in the experiment on SK-OV-3 ovarian and in the experiment with SNB-19 CNS was above 100 µM in each case. Further, the TGI in the experiment on SR leukemia, in the experiment on SW-620 colon, in the experiment on UACC-257 melanoma and in the experiment on UO-31 renal was above 100 µM throughout.

Regarding `CCc1c[nH]c2ncnc(N3CC[C@](N)(CNC(=O)c4ccc(F)cc4F)C3)c12`, the GI50 is 0.245 µM in the experiment with A498 renal; 30.1 µM in the experiment with NCI-H522 lung; 20.8 µM in the experiment with RPMI-8226 leukemia; 33.3 µM in the experiment on SF-268 CNS; 0.973 µM in the experiment on SK-OV-3 ovarian; 2.04 µM in the experiment on SNB-19 CNS. Moreover, the GI50 was 2.19 µM in the experiment with SR leukemia, 23.1 µM in the experiment on SW-620 colon, 9.22 µM in the experiment with UACC-257 melanoma and 1.52 µM with UO-31 renal. The TGI in the experiment on A498 renal is 1.73 µM; with NCI-H522 lung it was above 100 µM; with RPMI-8226 leukemia, above 100 µM; in the experiment with SF-268 CNS it was above 100 µM; with SK-OV-3 ovarian, above 62.1 µM; in the experiment with SNB-19 CNS it was above 100 µM. Further, the TGI is above 66.3 µM in the experiment on SR leukemia, above 100 µM in the experiment on SW-620 colon, above 100 µM in the experiment on UACC-257 melanoma and 47.6 µM in the experiment on UO-31 renal.

Turning to `CN1CCN(Cc2ccc(NC(=O)c3cncc(C#Cc4cnc5cccnn45)c3)cc2C(F)(F)F)CC1`, the GI50 is 0.907 µM in the experiment on A498 renal; 0.99 µM in the experiment on NCI-H522 lung; 1.11 µM with RPMI-8226 leukemia; 1.19 µM with SF-268 CNS; 1.67 µM in the experiment with SK-OV-3 ovarian; 1.8 µM with SNB-19 CNS. Further, the GI50 with SR leukemia is 1.39 µM; in the experiment on SW-620 colon it was 0.981 µM; in the experiment on UACC-257 melanoma it was 1.4 µM; in the experiment on UO-31 renal it was 1.49 µM. For the same compound, the TGI came out at 1.86 µM with A498 renal; 2.72 µM in the experiment with NCI-H522 lung; 3.05 µM with RPMI-8226 leukemia; 2.81 µM in the experiment with SF-268 CNS; 5.21 µM in the experiment with SK-OV-3 ovarian; 5.62 µM with SNB-19 CNS. Moreover, the TGI came out at 17.6 µM in the experiment on SR leukemia, 4.34 µM in the experiment with SW-620 colon, 5.04 µM in the experiment with UACC-257 melanoma and 3.78 µM in the experiment with UO-31 renal.

Consider `O=NNc1nc(-c2ccccn2)nc2ccccc12`, for which the TGI with A498 renal was above 100 µM; in the experiment on NCI-H522 lung it was 9.21 µM; in the experiment with SF-268 CNS, above 100 µM; in the experiment on SK-OV-3 ovarian, above 100 µM; in the experiment with SNB-19 CNS, above 100 µM; in the experiment on SR leukemia, above 100 µM. The TGI in the experiment with SW-620 colon is 27.7 µM; in the experiment with UACC-257 melanoma, above 100 µM; in the experiment on UO-31 renal it was above 100 µM.

For `COc1cccc(OC)c1/C=N\N1C(=O)c2ccccc2C1=O`, the TGI is above 100 µM with A498 renal; above 100 µM with RPMI-8226 leukemia; above 100 µM in the experiment on SF-268 CNS; above 100 µM in the experiment on SNB-19 CNS; 74.5 µM in the experiment on SR leukemia; above 100 µM with SW-620 colon. Moreover, the TGI in the experiment with UACC-257 melanoma and in the experiment on UO-31 renal was above 100 µM throughout.
